Laboratory results from PubChem BioAssay (NCI).
Values after ≈ are worked out from the molar mass of the structure shown. Values joined by “and” are separate entries in the source; they are usually repeats but may differ in a detail not shown here. Equal entries are not always repeated.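 Values below derive from 48-hour exposures of cells grown in 96-well plates, with endpoints linearly interpolated between the two concentrations bracketing the appropriate inhibition level. Abbreviation: GI50, concentration required for 50% inhibition of growth. TGI: concentration producing complete growth inhibition.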 Active and inactive are the calls of the source. Rule as the data show it: active = GI50 below about 0.43 µM; inactive = the rest.

Tests used:
Assay in all cases: NCI tumour cell line growth inhibition, 48 h
DLD-1 colon = tested on: DLD-1 colon
DMS 114 small cell lung = tested on: DMS 114 small cell lung
DMS 273 small cell lung = tested on: DMS 273 small cell lung
KM20L2 colon = tested on: KM20L2 colon
LXFL 529 NSCLC = tested on: LXFL 529 NSCLC
M19-MEL melanoma = tested on: M19-MEL melanoma
HOP-18 NSCLC = tested on: HOP-18 NSCLC
MDA-N = tested on: MDA-N
XF 498 CNS = tested on: XF 498 CNS

Structure (SMILES) | TGI (DLD-1 colon) | TGI (DMS 114 small cell lung) | TGI (DMS 273 small cell lung) | TGI (KM20L2 colon) | TGI (LXFL 529 NSCLC) | TGI (M19-MEL melanoma) | TGI (MDA-N) | TGI (XF 498 CNS) | TGI (HOP-18 NSCLC) | other results
CCCCCCCCC1C(C)c2c([nH]c3ccccc23)C2C(=O)N(c3ccccc3)C(=O)C21 (stereo not given) | 45.2 µM | 23.4 µM | 22.2 µM | 31.7 µM | 30.1 µM | 31.9 µM |  |  |  | 
C=C1C(=O)O[C@H]2C3OC3(C)CC/C=C(/C(=O)OC)[C@@H](OC(C)=O)[C@H](OC(=O)C3(C)OC3C)[C@H]12 (stereo not given in full) |  | 1.8 µg/mL | 3.73 µg/mL |  |  | 5.17 µg/mL | 3.46 µM |  |  | GI50 (DMS 114 small cell lung): 0.604 µg/mL (≈ 1.3 µM); GI50 (DMS 273 small cell lung): 1.1 µg/mL; outcome (HOP-18 NSCLC): inactive; outcome (KM20L2 colon): inactive; outcome (LXFL 529 NSCLC): inactive; GI50 (M19-MEL melanoma): 1.94 µg/mL
C=C(C)C1CC=C(C)C(O)([C@@]2(O)C[C@H](C(=C)C)CC=C2C)C1 (stereo not given in full) | > 100 µM | > 100 µM | 39.9 µM |  | > 100 µM | 38.1 µM |  | 29.7 µM |  | 
CCC1=CCC(P(=O)(c2ccccc2)c2ccccc2)CC1C (stereo not given) |  | > 100 µM | > 100 µM | > 100 µM | > 100 µM | > 100 µM |  | > 100 µM | > 100 µM | 
CN(CO)c1nc(N(C)CO)nc(N(C)CO)n1 | 97.2 µM |  | 25.8 µM | 25.2 µM |  | 17.2 µM | 39.3 µM and 63.4 µM | 12.8 µM | > 55.6 µM | GI50 (MDA-N): 24.8 µM
Nc1nc(N)c(CCCCc2ccccc2)c(/C=C/c2ccc([N+](=O)[O-])cc2)n1 | > 100 µM | 4.29 µM |  | 20.6 µM |  | 30.3 µM |  | 3.74 µM |  | 
CCN(CC)CCCNc1nccc2c(C)c3[nH]c4ccncc4c(=O)c3cc12 | 21.8 µM | 2.91 µM | 11.8 µM | 40 µM | 11.4 µM |  |  | 6.63 µM | 18.7 µM | 
O=c1oc2c(O)c(O)cc3c(=O)oc4c(O)c(O)cc1c4c23 | > 100 µM | > 100 µM | > 100 µM | > 100 µM | > 100 µM | > 100 µM |  | > 100 µM |  | GI50 (DLD-1 colon): > 100 µM; GI50 (DMS 273 small cell lung): > 100 µM; GI50 (M19-MEL melanoma): > 100 µM
O=C1NC(c2cccc3ccccc23)Nc2ccccc21 (stereo not given) |  |  |  |  |  |  | 0.00629 µM and 0.0586 µM |  |  | 
Cc1cc(=O)n2c(cc3cccccc32)n1 |  |  | > 100 µM | > 100 µM | > 100 µM |  |  |  |  | 
CC1(C)C=C(N2CCN(C3=CC(C)(C)NC(C)(C)C3)CC2)CC(C)(C)N1 | > 100 µM | > 100 µM | > 100 µM | > 100 µM | > 100 µM | > 100 µM |  | > 100 µM | > 100 µM | 
CC(C)c1ccc(C(O)(C(=O)O)c2ccc(C(C)C)cc2)cc1 |  |  |  |  |  |  | > 100 µM |  |  | 
CCCCCCCCCCCCCC(=O)NO | > 94.8 µM | 27.2 µM | 27.3 µM | 26 µM | 38.7 µM | 56.3 µM | > 100 µM | 60.3 µM | 81.6 µM | 
c1ccc(N2CCN(CCCN3CCc4c([nH]c5ccccc45)C3c3cccnc3)CC2)cc1 (stereo not given) | > 100 µM | > 100 µM | > 75.4 µM | > 100 µM | > 100 µM | > 100 µM |  | 44.6 µM | > 100 µM | 
CC(=O)OC(C)(C)C[N+](=O)[O-] | > 100 µM | > 100 µM | > 100 µM | > 100 µM | > 100 µM | > 100 µM |  |  |  | 
CCc1nc(N)nc(N)c1-c1ccc(N(C)Cc2ccccc2)c([N+](=O)[O-])c1 |  |  |  |  |  |  | 19.1 µM |  |  | 
CSc1nc(SC)c2c(C)c(Br)[nH]c2n1 |  |  |  |  |  |  | > 100 µM |  |  | 
CC(C)c1ccc(C(c2c(O)c3ccccc3oc2=O)c2c(O)c3ccccc3oc2=O)cc1 |  |  |  |  |  |  | 46.8 µM |  |  | 
CN(CCc1ccccn1)/[N+]([O-])=N/O (tested in a mixture with another compound) | > 100 µM | > 100 µM | > 100 µM | > 100 µM | > 100 µM | > 100 µM |  |  | > 100 µM | 
